# Earlier results in article PMC8917853, “Synthesis and evaluation of ^99mTc-DOTA-ARA-290 as potential SPECT tracer for targeting cardiac ischemic region” (Iranian Journal of Basic Medical Sciences, 2021).
# Like-named read-outs stand apart in the source and are kept apart here. Non-standard residues stand in square brackets, D forms with d. pGlu = O=C1CC[C@@H](C(=O)O)N1
# Experiments:
# [1] = metabolic stability; 41 (Yang et al.); cited from earlier work
# Description: Myocardial SPECT imaging as a nuclear cardiological scan has been used in many procedures for ischemic heart diseases ([36]). In the mid-1970s, […]-201 (201TI) imaging has been used to ascertain regional myocardial perfusion models at rest, stress, and acute myocardial infarction, but because of the concerns about medical exposure to ionizing radiation and lower image quality, ^201Tl was substituted by ^99mTc-labeled perfusion agents (^99mTc-sestamibi and ^99mTc-tetrofosmin). However, these SPECT agents show poor pharmacokinetic features with reducing uptake with higher flows ([37], [38]) ...
# [2] = cited from earlier work
# Description: Myocardial infarction, the most prominent cardiovascular disease outcome (CVD), is the main reason for morbidity and death in the world ([1]). Immediate and precise diagnosis of cardiac hypoxia and ischemia is very critical and crucial for appropriate treatment and prevention of myocardial damage ([2]). Evaluation of cardiac ischemic biomarkers in blood plasma, including Creatine Kinase-MB, cardiac troponin, and lactate dehydrogenase (LDH) is valuable for diagnosis; however, their levels increase in blood after a delay of time ([3]).
substance,measurement,setting,value
"[pGlu]EQLERALNSS-OH [ARA-290, 11 amino acid nonhematopoietic peptide derived from helix B of EPO]",in vivo stability,[1],2 min
same,half-life,[2]; in rabbits,roughly 2 min
same,half-life,[2]; in rats,roughly 2 min
